{"source": "patent US10036018B2", "about": "“Compositions and methods for treating cachexia” (priority 2014, dated 2018)", "key": {"C2C12 myoblasts": {"tested_on": "C2C12 myoblasts", "experiment": "Trypan blue cell death of C2C12 cells treated with cytokines", "assay_type": "cell-based, murine", "conditions": "C2C12, 24 h, cytokines at 5 ng/mL", "protocol": "FIG. 5C is a graph depicting cell death assessed by trypan blue dye staining performed on C2C12 cells that were treated for 24 h with individual cytokines or a mixture (Cocktail) of IL-1, IL-6, TNFα, and IFNγ (all at 5 ng/mL). As a negative control, cells were treated with serum-free medium.\nTrypan Blue Staining. Trypan blue dye was purchased from Gibco (15250-061), and staining was performed following the manufacturer's protocol. Dead cells are blue in color under the microscope and were counted using a hemocytometer."}, "phospho-c-jun": {"tested_on": "phospho-c-jun", "experiment": "Western blot of treated C2C12 extracts, phospho-c-jun", "assay_type": "cell-based, murine", "conditions": "proliferating myoblasts, Western blot time course", "protocol": "(§1) FIG. 9B is an image of a Western blot on extracts of C2C12 cells that had been treated with either LLC-derived MVs (Upper) or synthetic miR-21 (Lower, using miR-16 as control), which were probed with antibodies against phospho-JNK, phospho-c-jun, and phospho-p38 at different times, as indicated.\n(§2) Western Blot. Western blots were performed as previously described (2). Antibodies used and their dilutions are listed: p-JNK (Cell Signaling Technology, 1:2,000), p-c-Jun (Cell Signaling Technology, 1:1,000), p-p38 (Cell Signaling Technology, 1:2,000), and vinculin (Abeam, 1:3,000)."}, "[1]": {"tested_on": "TLR7−/− primary myoblasts", "experiment": "Cell viability (cell counter) of TLR7-/- primary myoblasts treated with Dotap formulations of miRNAs", "assay_type": "cell-based, mice", "conditions": "Dotap formulation, 24 h", "protocol": "(§3) FIG. 4A is a graph depicting cell viability assessed with a cell counter for TLR7+/+ and TLR7−/− primary myoblasts that were treated with Dotap formulations of miR-16 and miR-21 for 24 h. As negative control, cells were incubated with Dotap alone. Experiments were performed in quadruplicate. Results are presented as average±SEM. *P≤0.05; **P≤0.01; ***P≤0.001.\n(§4) MV Treatment. C2C12 immortalized myoblasts or primary myoblasts isolated from mice were treated with MVs at indicated times. Cell numbers of myoblasts were counted on a hemocytometer.\n(§5) Myoblast Isolation and Culture. Primary myoblasts were isolated as previously described (2) and preplated twice, using noncoated tissue culture dishes, and then cultured either on a matrigelcoated 96-well plate for MTS assay reading at indicated times or on a matrigel-coated 12-well plate for protein and RNA analysis.\nMice. Cachexia in the LLC model were induced as previously described (2). TLR7−/− mice were obtained from Jackson Laboratory. Wild-type C57B6 male mice at the same age and weight were used as TLR7+/+ controls. All genotypes were determined by PCR, using tail DNA. All procedures used in this study complied with federal guidelines and the institutional policies of the Ohio State University Animal Care and Use Committee."}, "[2]": {"tested_on": "TLR7+/+ primary myoblasts", "experiment": "Cell viability (cell counter) of TLR7+/+ primary myoblasts treated with Dotap formulations of miRNAs", "assay_type": "cell-based, mice", "conditions": "Dotap formulation, 24 h", "protocol": "as §3, §4, §5"}, "phospho-p38": {"tested_on": "phospho-p38", "experiment": "Western blot of treated C2C12 extracts, phospho-p38", "assay_type": "cell-based, murine", "conditions": "proliferating myoblasts, Western blot time course", "protocol": "as §1, §2"}, "phospho-JNK": {"tested_on": "phospho-JNK", "experiment": "Western blot of treated C2C12 extracts, phospho-JNK", "assay_type": "cell-based, murine", "conditions": "proliferating myoblasts, Western blot time course", "protocol": "as §1, §2"}}}
{"substance": "IFN-γ: proinflammatory cytokine", "values": [{"measurement": "effect on the viability of proliferating murine C2C12 myoblasts", "setting": "C2C12 myoblasts", "result": "little or no effect"}]}
{"substance": "UAGCUUAUCAGACUGAUGUUGA [miR-21]", "values": [{"measurement": "c-JUN activation", "setting": "phospho-c-jun", "result": "transiently induced"}, {"measurement": "cell death on exogenous addition of miRNA", "setting": "[1]", "result": "significantly blunted"}, {"measurement": "cell death on exogenous addition of miRNA", "setting": "[1]; listed as miR21", "result": "does not completely rescue"}, {"measurement": "cell death on exogenous addition of miRNA", "setting": "[2]", "result": "induced pronounced cell death"}, {"measurement": "p38 activity", "setting": "phospho-p38", "result": "no significant change"}, {"measurement": "JNK activation", "setting": "phospho-JNK", "result": "transiently induced"}]}
{"substance": "TNFα", "values": [{"measurement": "effect on the viability of proliferating murine C2C12 myoblasts", "setting": "C2C12 myoblasts", "result": "little or no effect"}]}
{"substance": "IL-6: proinflammatory cytokine", "values": [{"measurement": "effect on the viability of proliferating murine C2C12 myoblasts", "setting": "C2C12 myoblasts", "result": "little or no effect"}]}
{"substance": "IL-1β: proinflammatory cytokine", "values": [{"measurement": "effect on the viability of proliferating murine C2C12 myoblasts", "setting": "C2C12 myoblasts", "result": "little or no effect"}]}
